Experimental data reported in patent US8106197B2, “Aminoheteroaryl compounds as protein kinase inhibitors” (Pfizer Inc., priority 2003, dated 2012).
Like-named read-outs stand apart in the source and are kept apart here.

Target: T1, HGFR (Homo sapiens, UniProt P08581)
T1 construct: purchased Upstate 14-526
Test: HGFR continuous-coupled spectrophotometric assay
Type: biochemical
Conditions: for inhibition at 1 µM: Table 6, percent c-MET inhibition at 1 μM, read-out: % inhibition; for I(%): Table 3, Ki(μM) or I(%), test concentration not given

[1] = Table 5, percent c-MET inhibition at 50 nM

T1 sequence (P08581 974-1390 limits assumed): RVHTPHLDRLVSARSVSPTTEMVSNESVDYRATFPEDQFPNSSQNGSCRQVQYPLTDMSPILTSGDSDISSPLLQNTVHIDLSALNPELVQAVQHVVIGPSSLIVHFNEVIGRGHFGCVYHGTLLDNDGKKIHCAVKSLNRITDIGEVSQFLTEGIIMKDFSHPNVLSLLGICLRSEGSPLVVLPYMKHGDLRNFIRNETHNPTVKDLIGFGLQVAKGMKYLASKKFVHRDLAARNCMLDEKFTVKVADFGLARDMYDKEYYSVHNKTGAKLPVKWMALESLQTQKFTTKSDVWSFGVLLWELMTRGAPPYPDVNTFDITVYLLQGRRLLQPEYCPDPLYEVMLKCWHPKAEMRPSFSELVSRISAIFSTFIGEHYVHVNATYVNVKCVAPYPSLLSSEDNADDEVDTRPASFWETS

inhibition at 1 µM | % inhibition | Compound | further results
2% | – | C[C@@H]1CCC[C@H](C)N1CCNC(=O)c1cnc(N)c(OCc2c(Cl)cccc2Cl)c1 | –
29% | – | CN(C)CCNC(=O)c1cnc(N)c(OCc2c(Cl)cccc2Cl)c1 | –
– | % inhibition = 16 | Nc1ncc(-c2ccc(C(=O)N3CCC(N4CCCC4)CC3)cc2)cc1OCc1ccccn1 | –
34% | – | Nc1ncc(C(=O)N2CCC3(CC2)COC(CCc2cc(O)n[nH]2)C3)cc1OCc1c(Cl)cccc1Cl (stereo not drawn) | –
– | % inhibition = 24 | Nc1ncc(-c2ccc(C(=O)N3CCC(N4CCCC4)CC3)cc2)cc1OCc1cc(F)ccc1F | –
32% | – | C[C@@H]1CN(C(=O)c2cnc(N)c(OCc3c(Cl)cccc3Cl)c2)C[C@H](C)O1 | –
– | % inhibition = 31 | Nc1ncc(-c2ccc(C(=O)N3CCC(N4CCCC4)CC3)cc2)cc1OCc1c(F)cccc1C(F)(F)F | –
23% | – | CS(=O)(=O)C1CCN(C(=O)c2cnc(N)c(OCc3c(Cl)cccc3Cl)c2)C1 (stereo not drawn) | –
32% | – | Nc1ncc(C(=O)N2CCN(CC(=O)N3CCCC3)CC2)cc1OCc1c(Cl)cccc1Cl | –
30% | – | Nc1ncc(C(=O)NCCc2ccc(S(N)(=O)=O)cc2)cc1OCc1c(Cl)cccc1Cl | –
32% | – | COc1ccccc1CNC(=O)c1cnc(N)c(OCc2c(Cl)cccc2Cl)c1 | –
31% | – | Nc1ncc(C(=O)N2CCNC(=O)CC2)cc1OCc1c(Cl)cccc1Cl | –
– | % inhibition = 6 | Nc1ncc(-c2ccc(C(=O)N3CCC(N4CCCC4)CC3)cc2)cc1OCc1nc(NC2CC2)c2ccccc2n1 | –
45% | – | CC(CN(C)C)NC(=O)c1cnc(N)c(OCc2c(Cl)cccc2Cl)c1 (stereo not drawn) | –
34% | – | Nc1ncc(C(=O)N2CCN(c3ccccn3)CC2)cc1OCc1c(Cl)cccc1Cl | –
– | % inhibition = 11 | Nc1ncc(-c2ccc(C(=O)N3CCC(N4CCCC4)CC3)cc2)cc1OCc1ccccc1CS(=O)(=O)c1ccccc1 | –
– | % inhibition = 9 | Nc1ncc(-c2ccc(C(=O)N3CCC(N4CCCC4)CC3)cc2)cc1OCc1cncc2ccccc12 | –
– | % inhibition = 39 | Cc1ccc(COc2cc(-c3ccc(C(=O)N4CCC(N5CCCC5)CC4)cc3)cnc2N)c(F)c1F | –
– | % inhibition = 14 | Nc1ncc(-c2ccc(C(=O)N3CCC(N4CCCC4)CC3)cc2)cc1OCc1ccc(S(=O)(=O)N2CCOCC2)cc1 | –
– | % inhibition = 12 | Nc1ncc(-c2ccc(C(=O)N3CCC(N4CCCC4)CC3)cc2)cc1OCc1cc(F)c(F)cc1F | –
– | – | Nc1ncc(-c2ccc(C(=O)N3CCC(N4CCCC4)CC3)cc2)cc1OCc1ccccc1 [Example I-649, [4-(6-Amino-5-benzyloxy-pyridin-3-yl)-phenyl]-(4-pyrrolidin-1-yl-piperidin-1-yl)-methanone] | I(%): 29%
– | % inhibition = 47 | CCN(CC)c1ccc(NC(=O)c2ccc(COc3cc(-c4ccc(C(=O)N5CCC(N6CCCC6)CC5)cc4)cnc3N)cc2)cc1 | –
– | % inhibition = 16 | Nc1ncc(-c2ccc(C(=O)N3CCC(N4CCCC4)CC3)cc2)cc1OCc1nc2ccc(Cl)cc2[nH]1 | –
30% | – | Nc1ncc(C(=O)NCc2ccc(S(N)(=O)=O)cc2)cc1OCc1c(Cl)cccc1Cl | –

inhibition at 1 µM | % inhibition | Compound | further results
– | – | CC(Oc1cc(-c2ccc(C(=O)NC(CO)C(C)C)cc2)cnc1N)c1c(Cl)ccc(F)c1Cl (stereo not drawn) | inhibition at 0.05 µM [1]: 65%
23% | – | COCC1CN(CC(N)=O)CCN(C(=O)c2cnc(N)c(OCc3c(Cl)cccc3Cl)c2)C1 (stereo not drawn) | –
17% | – | Nc1ncc(C(=O)N2CCC3(CC2)CC(N2CCNC(=O)C2)CO3)cc1OCc1c(Cl)cccc1Cl (stereo not drawn) | –
– | – | CC(Oc1cc(-c2ccc(C(=O)N[C@H]3C[C@@H]3c3ccccc3)cc2)cnc1N)c1c(Cl)ccc(F)c1Cl (stereo partly drawn) | inhibition at 0.05 µM [1]: 65%
– | – | CC(Oc1cc(-c2ccc(C(=O)N[C@H]3CC[C@H](O)CC3)cc2)cnc1N)c1c(Cl)ccc(F)c1Cl (stereo partly drawn) [drawing 1039] | inhibition at 0.05 µM [1]: 73%
– | – | CC(Oc1cc(-c2ccccc2Cl)cnc1N)c1c(Cl)ccc(F)c1Cl (stereo not drawn) [Example I-560, 5-(2-Chloro-phenyl)-3-[1-(2,6-dichloro-3-fluoro-phenyl)-ethoxy]-pyridin-2-ylamine] | I(%): 24%
– | % inhibition = 16 | Nc1ncc(-c2ccc(C(=O)N3CCC(N4CCCC4)CC3)cc2)cc1OCc1cn2cccnc2n1 | –
35% | – | CC(=O)NCCNC(=O)c1cnc(N)c(OCc2c(Cl)cccc2Cl)c1 | –
– | – | COc1ccc(C(NC(=O)c2ccc(-c3cnc(N)c(OC(C)c4c(Cl)ccc(F)c4Cl)c3)cc2)C2CC2)cc1 (stereo not drawn) | inhibition at 0.05 µM [1]: 67%
– | % inhibition = 8 | Nc1ncc(-c2ccc(C(=O)N3CCC(N4CCCC4)CC3)cc2)cc1OCc1ncc(C(F)(F)F)cc1Cl | –
– | – | Cc1ccccc1COc1cc(-c2ccc(C(=O)N3CCC(N4CCCC4)CC3)cc2)cnc1N [Example I-627, {4-[6-Amino-5-(2-methyl-benzxloxy)-pyridin-3-yl]-phenyl}-(4-pyrrolidin-1-yl-piperidin-1-yl)-methanone] | I(%): 6%
– | – | CC(Oc1cc(-c2ccc(C(=O)N[C@H](C)C3CCCCC3)cc2)cnc1N)c1c(Cl)ccc(F)c1Cl (stereo partly drawn) [drawing 1071] | % inhibition (Table 5, percent c-MET inhibition at 50 nM, 0.05 µM): % inhibition = 54
– | % inhibition = 21 | Nc1ncc(-c2ccc(C(=O)N3CCC(N4CCCC4)CC3)cc2)cc1OCc1cc(F)cc2c1OCOC2 | –
– | % inhibition = 9 | Nc1ncc(-c2ccc(C(=O)N3CCC(N4CCCC4)CC3)cc2)cc1OCc1nc(CS(=O)(=O)c2ccccn2)no1 | –
41% | – | Nc1ncc(C(=O)N2CCC(Cc3ccc(F)cc3)CC2)cc1OCc1c(Cl)cccc1Cl | –
– | % inhibition = 23 | COc1ccnc(COc2cc(-c3ccc(C(=O)N4CCC(N5CCCC5)CC4)cc3)cnc2N)c1OC | –
– | % inhibition = 15 | COC(=O)c1ccc(COc2cc(-c3ccc(C(=O)N4CCC(N5CCCC5)CC4)cc3)cnc2N)c(OC)c1 | –
– | % inhibition = 14 | Nc1ncc(-c2ccc(C(=O)N3CCC(N4CCCC4)CC3)cc2)cc1OCc1cc(F)cc(F)c1 | –
45% | – | Cc1ccn2cc(CNC(=O)c3cnc(N)c(OCc4c(Cl)cccc4Cl)c3)nc2n1 | –
– | % inhibition = 4 | Nc1ccc(-c2ccc(C(=O)N3CCC(N4CCCC4)CC3)cc2)cc1OC1OC(=O)c2ccccc21 (stereo not drawn) | –
17% | – | CCCN(CCO)C1CCCN(C(=O)c2cnc(N)c(OCc3c(Cl)cccc3Cl)c2)CC1 (stereo not drawn) | –
– | % inhibition = 10 | Nc1ncc(-c2ccc(C(=O)N3CCC(N4CCCC4)CC3)cc2)cc1OCc1cccc(C(=O)Nc2cccnc2)c1 | –
– | – | C[C@@H]1CN(C(=O)c2ccc(-c3cnc(N)c(OCc4cccc(F)c4C(F)(F)F)c3)cc2)C[C@H](C)N1 [Example I-619, {4-[6-Amino-5-(3-fluoro-2-trifluoromethyl-benzyloxy)-pyridin-3-yl]-phenyl}-(3,5-dimethyl-piperazin-1-yl)-methanone] | I(%): 16%
– | % inhibition = 13 | COc1ccc2sc(COc3cc(-c4ccc(C(=O)N5CCC(N6CCCC6)CC5)cc4)cnc3N)cc2c1 | –

inhibition at 1 µM | % inhibition | Compound | further results
30% | – | Nc1ncc(C(=O)NCC(F)(F)F)cc1OCc1c(Cl)cccc1Cl | –
26% | – | Nc1ncc(C(=O)N2CCN(Cc3cccc4ccccc34)CC2)cc1OCc1c(Cl)cccc1Cl | –
– | % inhibition = 5 | Nc1ncc(-c2ccc(C(=O)N3CCC(N4CCCC4)CC3)cc2)cc1OCc1nsc(Cl)n1 | –
20% | – | Nc1ncc(C(=O)NC2COC3(CCN(Cc4ccncc4)CC3)C2)cc1OCc1c(Cl)cccc1Cl (stereo not drawn) | –
– | % inhibition = 31 | Nc1ncc(-c2ccc(C(=O)N3CCC(N4CCCC4)CC3)cc2)cc1OCc1ccc(Br)cc1F | –
– | % inhibition = 6 | Cc1nc(COc2cc(-c3ccc(C(=O)N4CCC(N5CCCC5)CC4)cc3)cnc2N)cs1 | –
51% | – | Nc1ncc(C(=O)N2CCN(CCO)CC2)cc1OCc1c(Cl)cccc1Cl | –
31% | – | Nc1ncc(C(=O)N2CCN(CCCO)CC2)cc1OCc1c(Cl)cccc1Cl | –
11% | – | Nc1ncc(C(=O)N2CCC(Cc3cccc(CO)c3)CC2)cc1OCc1c(Cl)cccc1Cl | –
– | % inhibition = 18 | COCOc1ccc(S(=O)(=O)c2ccc(COc3cc(-c4ccc(C(=O)N5CCC(N6CCCC6)CC5)cc4)cnc3N)cc2)cc1 | –
– | % inhibition = 15 | Nc1ncc(-c2ccc(C(=O)N3CCC(N4CCCC4)CC3)cc2)cc1OCc1cccc(CO)n1 | –
– | % inhibition = 19 | Cc1oc(-c2ccccc2)nc1COc1cc(-c2ccc(C(=O)N3CCC(N4CCCC4)CC3)cc2)cnc1N | –
– | % inhibition = 27 | Cc1cc(COc2cc(-c3ccc(C(=O)N4CCC(N5CCCC5)CC4)cc3)cnc2N)ccc1F | –
31% | – | CC(=O)N(C)C1CCN(C(=O)c2cnc(N)c(OCc3c(Cl)cccc3Cl)c2)C1 (stereo not drawn) | –
– | – | COc1cc(C(=O)N2C[C@@H](C)N[C@@H](C)C2)cc(OC)c1-c1cnc(N)c(OC(C)c2c(Cl)ccc(F)c2Cl)c1 (stereo partly drawn) [Example I-550, (4-{6-Amino-5-[1-(2,6-dichloro-3-fluoro-phenyl)-ethoxy]-pyridin-3-yl)-3,5-dimethoxy-phenyl)-(dimethyl-piperazin-1-yl)-methanone] | I(%): 15%
– | % inhibition = 16 | Nc1ncc(-c2ccc(C(=O)N3CCC(N4CCCC4)CC3)cc2)cc1OCc1cn2cc(Cl)ccc2n1 | –
15% | – | Cc1ccc(N2CCN(CCCCNC(=O)c3cnc(N)c(OCc4c(Cl)cccc4Cl)c3)CC2)cc1 | –
– | % inhibition = 11 | Nc1ncc(-c2ccc(C(=O)N3CCC(N4CCCC4)CC3)cc2)cc1OCc1ccc(C(=O)NCCc2ccccn2)cc1 | –
26% | – | Nc1ncc(C(=O)N2CCCN(Cc3ccc(F)cc3)CC2)cc1OCc1c(Cl)cccc1Cl | –
72% | – | Nc1ncc(C(=O)N2CCC(Cc3cnccn3)CC2)cc1OCc1c(Cl)cccc1Cl | –
– | % inhibition = 11 | Nc1ncc(-c2ccc(C(=O)N3CCC(N4CCCC4)CC3)cc2)cc1OCc1ccc(C(=O)NCCN2CCOCC2)cc1 | –
– | % inhibition = 34 | Nc1ncc(-c2ccc(C(=O)N3CCC(N4CCCC4)CC3)cc2)cc1OCc1nc2cc(C(F)(F)F)ccc2s1 | –
– | – | Cc1ccccc1-c1cnc(N)c(OC(C)c2c(Cl)ccc(F)c2Cl)c1 (stereo not drawn) [Example I-565, 3-[1-(2,6-Dichloro-3-fluoro-phenyl)-ethoxy]-5-o-tolyl-pyridin-2-ylamine] | I(%): 25%
– | % inhibition = 17 | COc1cc(COc2cc(-c3ccc(C(=O)N4CCC(N5CCCC5)CC4)cc3)cnc2N)cc(OC)c1 | –
